Measurements taken from patent publication EP4810046A1, “USE OF PENTACYCLIC TRITERPENE COMPOUND TARGETING HYDROXYSTEROID 17-B DEHYDROGENASE 4” (Jiangsu Bcy Pharm. Co., Ltd, priority 2023, dated 2025).

Key:
Solubility description = type: physicochemical; conditions: methanol/DMSO; water
AD mice = assay: Behavioral tests (Morris water maze, open field, Y-maze) in AD mice after oral gavage treatment; type: in vivo; conditions: compared with vehicle control group
Procedure: For evaluation of therapeutic efficacy in animal models, a 15mg/mL CKBA suspension (solvent: 0.5% sodium carboxymethylcellulose) was administered by oral gavage at a volume of 200µL (equivalent to a dose of 100mg/kg). […] Therapeutic efficacy was evaluated after the treatment period.
• (1) 5xFAD transgenic mice: These mice overexpress mutant human APP (695) carrying the Swedish (K670N, M671L), Florida (I716V) and London (V717I) familial Alzheimer's disease (FAD) mutations, as well as human PS1 carrying two FAD mutations (M146L and L286V). Expressions of both transgenes are driven by the mouse neuron-specific regulatory element Thy1 promoter to achieve overexpression in the brain. […] 5XFAD mice produce almost exclusively Aβ-42 and rapidly accumulate it in the brain. • (2) Preparation of MS mouse (EAE) model and evaluation of CKBA intervention efficacy
Evaluation of the therapeutic effect of CKBA on AD: 8-10 month old 5xFAD mice, 5xFAD mice treated with the small molecule drug CKBA and control mice were subjected to behavioral tests including the Morris water maze, open field test and rotarod test to evaluate higher central nervous system functions. During the behavioral tests, the animal movement trajectory tracking system (EthoVision XT 16.0) was used for full-recording and offline analysis.
Morris water maze: Mice underwent a 5-day adaptive training period, wherein abnormal individuals were excluded. On the final day, after removing the platform, a probe trial was performed. Quantitative data were recorded, including the escape latency after entering the water in each quadrant during the learning phase, the number of platform crossings, and the latency to reach the platform area.
Open field test: The spontaneous activity path of mice in a 50cm*50cm*40 cm novel open field within 5 minutes was recorded. The distance traveled and time spent in the center area were analyzed to assess anxiety-related behavior.
AD mice were treated with CKBA by oral gavage (Figure 5A) for in vivo intervention studies, with continuous intervention for 3 months. […]

inflammatory microglia = assay: Seahorse energy metabolism (OCR) assay of CKBA-treated, LPS-stimulated BV2 cells; type: cell-based, mouse; conditions: Figure 4B
Procedure: The specific methods for CKBA treatment and LPS activation of the BV2 cell line were as described above.
The main steps of the Seahorse assay were as follows: Seahorse XF Cell Mitochondrial Stress Analysis: Single cells from brain tissue were obtained using the aforementioned experimental methods. Microglia in brain tissue were collected by flow cytometry sorting. Primary microglia were seeded into Seahorse XF cell culture plates 4-7 days in advance. After the cells were fully adherent, the probe plate was hydrated with double-distilled water and placed in a CO2-free 37°C incubator overnight. The next day, the calibration solution was replaced to further equilibrate and hydrate the probes. On the day of the experiment, the assay solution was prepared, and the corresponding substrates (glucose, pyruvate, glutamine, etc.) from the kit were added. The pH was adjusted to 7.4. […] OCR/ECAR values were recorded at different time points after drug addition. After recording, the cell plate was removed, and the number of microglia per well was counted under an inverted microscope. After normalizing OCR/ECAR to the cell number, intracellular mitochondrial stress levels were quantitatively analyzed.
Seahorse energy metabolism analysis was performed. By measuring the changes in oxygen consumption reagents and dissolved oxygen content in the cell culture medium, the OCR of the cells was calculated.

MFE-2 [1] = target: T1, MFE-2 (Mus musculus, UniProt P51660); assay: MFE-2 protein expression in BV2 cells with and without LPS stimulation (Western blot); type: cell-based
T1 construct: endogenous in cells; host or cells: BV2 mouse microglial cell line
T1 sequence (P51660 1-735): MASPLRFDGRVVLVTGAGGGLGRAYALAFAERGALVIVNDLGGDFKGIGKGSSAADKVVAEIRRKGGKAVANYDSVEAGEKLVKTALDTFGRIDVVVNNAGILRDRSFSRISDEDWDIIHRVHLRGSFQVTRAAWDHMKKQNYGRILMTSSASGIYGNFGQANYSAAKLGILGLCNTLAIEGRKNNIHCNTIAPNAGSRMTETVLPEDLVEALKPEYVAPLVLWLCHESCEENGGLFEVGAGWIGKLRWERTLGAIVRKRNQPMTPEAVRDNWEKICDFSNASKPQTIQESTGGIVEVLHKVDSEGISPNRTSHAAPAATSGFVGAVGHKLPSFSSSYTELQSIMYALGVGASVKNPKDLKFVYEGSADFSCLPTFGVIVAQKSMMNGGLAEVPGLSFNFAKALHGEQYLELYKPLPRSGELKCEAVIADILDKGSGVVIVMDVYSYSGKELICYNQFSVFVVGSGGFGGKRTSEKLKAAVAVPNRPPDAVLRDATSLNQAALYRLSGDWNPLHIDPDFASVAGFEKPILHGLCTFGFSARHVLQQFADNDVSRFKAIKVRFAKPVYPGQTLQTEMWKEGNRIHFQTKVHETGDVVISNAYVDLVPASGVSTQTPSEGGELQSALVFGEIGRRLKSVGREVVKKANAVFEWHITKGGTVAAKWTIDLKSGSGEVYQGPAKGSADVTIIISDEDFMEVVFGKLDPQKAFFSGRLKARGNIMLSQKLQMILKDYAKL
Procedure: Cell treatment: For cell treatment, CKBA was dissolved in DMSO to prepare a stock solution at a concentration of 5mM (1000×), stored at -20°C. For use, the stock solution was added to the cell culture medium at a dilution of 1:1000 and mixed well. The final working concentration was 5µM. Cells were treated for 24-48h and then collected for subsequent experiments.
(§1) The Western blot procedure comprised: fresh cells or tissue samples were immersed in lysis buffer and placed on ice for 10-15 minutes. After observing that the cells/tissues were fully lysed into a homogeneous turbid liquid, the samples were placed on ice for an additional 10 minutes. Centrifugation was performed at 12000 rpm for 10 minutes, and the supernatant was collected. Total protein concentration was determined using the BCA method. Subsequently, steps including loading, electrophoresis, membrane transfer, blocking, and incubation with primary and secondary antibodies were carried out. After developing with ECL chemiluminescent substrate, ImageJ was used to analyze protein content.
Further exploration was conducted to investigate the mode of action of CKBA on the MFE-2 protein.

LPS-activated BV2 cells = assay: CCK-8 assay of CKBA-treated LPS-activated BV2 cells; type: cell-based, mouse; conditions: 0.1-20 µM CKBA, 24 hours
Procedure: The mouse microglial cell line BV2 was seeded into 96-well flat-bottom plates and cultured overnight to allow full cell adherence. BV2 cells were activated by stimulation with LPS. LPS (Sigma) stock solution (5 mg/mL) was added to the BV2 cell culture supernatant and mixed well. After 12 hours of activation, cell morphology was observed. […]
Subsequently, a CCK8 assay (Dojindo, Japan) was performed to measure cell viability. The cell culture medium was removed from the 96-well plate, and 100 µL of diluted CCK8 reaction solution was added to each well. The plate was protected from light. Incubation conditions: 37°C incubator for about 1-2 hours. After 1 hour of incubation, the plate was removed, and the colorimetric (orange) signal was detected using a multifunctional microplate reader (Tecan Infinite 200 pro, Austria). Depending on the signal intensity, the plate could be further incubated for 1.5/2 hours, and the signal was measured at multiple time points. The colorimetric intensity values were recorded, and subsequent statistical analysis and graphing were performed using SPSS.
In vitro cell experiments were performed to analyze the effect of CKBA on the inflammatory activation of microglia.

MFE-2 [2] = target: T1, MFE-2; assay: CKBA-biotin pull-down and Western blot for direct binding to MFE-2; conditions: microglial cell line (BV2), CKBA-biotin 5µM, 6 hours
Procedure: CKBA pull-down assay was performed to detect the direct interaction between CKBA and MFE-2. Specifically, CKBA was labeled with Biotin. CKBA-biotin was added to the culture medium at a final concentration of 5µM for 6 hours. Cells were then washed, lysed, and incubated with Streptavidin magnetic beads under rotation at 4°C for 3 hours. After washing the beads 4 times, loading buffer was added, and the samples were boiled at 96°C for 5 minutes. Western blot (WB) was used to detect MFE-2 protein levels to assess the direct interaction between the small molecule compound and MFE-2.
as §1

[3] = mouse, po, 100 mg/kg
Procedure: Based on the above optimized method, the absolute content of CKBA in brain tissue was further detected. For absolute content detection of CKBA in brain tissue, normal mice were administered CKBA by oral gavage. One hour after administration, the mice were perfused, and fresh brain tissue and serum were collected for mass spectrometry analysis.

C[C@H]1[C@H](C)CC[C@]2(C)CC[C@]3(C)C(=CC(=O)[C@@H]4[C@@]5(C)CC[C@@H](OC(=O)C6CCCCC6)[C@](C)(C(=O)O)[C@@H]5CC[C@]43C)[C@H]12 [CKBA, 3-o-α-cyclohexanoyl-11-keto-β-boswellic acid]
solubility (Solubility description): lipophilic, soluble in methanol/DMSO, insoluble in water
platform crossover number (AD mice): significant increase
time spent in the opposite quadrant (AD mice): significant decrease
time spent in the specific effective area (center area) as a percentage of total movement time (AD mice): significant increase
activity of inflammatory microglia (OCR) (inflammatory microglia): significantly inhibited the activity of inflammatory microglia
expression and content of MFE-2 after LPS stimulation (MFE-2 [1]; LPS-stimulated BV2 cells): effectively maintained the expression and content of MFE-2
baseline expression level of MFE-2 (MFE-2 [1]; normal BV2 cells, no LPS): did not affect the baseline expression level of MFE-2
expansion of inflammatory microglia (LPS-activated BV2 cells): significantly inhibited the expansion of inflammatory microglia
peroxisome stability (LPS-activated BV2 cells): maintained peroxisome stability
binding to MFE-2 protein (pull-down) (MFE-2 [2]): could bind to the MFE-2 protein
blood-brain barrier permeability [3]: could effectively cross the blood-brain barrier
